# Source: PubChem BioAssay AID2060625 (Molecular Pharmacology Branch, DTP, NCI, 2025)
# pIC50: −log10 of the molar value.
# Tested on: 186277-243-T-J2-PDC spheroids with HUVEC/MSC, viability
# Assay: Anticancer human tumor 186277-243-T-J2-PDC patient-derived colon adenocarcinoma cell line growth inhibition [CLK]
# Settings: for pIC50: curve of first compound; for viability, T/C: stronger effect = lower value
# Procedure, shortened: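 Multi-cell-type spheroids combined patient-derived tumor cells with HUVEC endothelial cells and human mesenchymal stem cells. Paired agents were dosed in half-log steps down from about clinical Cmax, or from 10 microM where Cmax was unknown.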
# [1] = second compound 0.0316 µM, first compound 0.0316 µM
# [2] = second compound 0.0316 µM, first compound 0.1 µM
# [3] = second compound 0.0316 µM, first compound 0.316 µM
# [4] = second compound 0.0316 µM, first compound 1 µM
# [5] = second compound 0.0316 µM, first compound 3.16 µM
# [6] = second compound 0.0316 µM, first compound 10 µM
# [7] = second compound 0.1 µM, first compound 0.0316 µM
# [8] = second compound 0.1 µM, first compound 0.1 µM
# [9] = second compound 0.1 µM, first compound 0.316 µM
# [10] = second compound 0.1 µM, first compound 1 µM
# [11] = second compound 0.1 µM, first compound 3.16 µM
# [12] = second compound 0.1 µM, first compound 10 µM
# [13] = second compound 0.316 µM, first compound 0.0316 µM
# [14] = second compound 0.316 µM, first compound 0.1 µM
# [15] = second compound 0.316 µM, first compound 0.316 µM
# [16] = second compound 0.316 µM, first compound 1 µM
# [17] = second compound 0.316 µM, first compound 3.16 µM
# [18] = second compound 0.316 µM, first compound 10 µM
# [19] = second compound 1 µM, first compound 0.0316 µM
# [20] = second compound 1 µM, first compound 0.1 µM
# [21] = second compound 1 µM, first compound 0.316 µM
# [22] = second compound 1 µM, first compound 1 µM
# [23] = second compound 1 µM, first compound 3.16 µM
# [24] = second compound 1 µM, first compound 10 µM
# [25] = second compound 3.16 µM, first compound 0.0316 µM
# [26] = second compound 3.16 µM, first compound 0.1 µM
# [27] = second compound 3.16 µM, first compound 0.316 µM
# [28] = second compound 3.16 µM, first compound 1 µM
# [29] = second compound 3.16 µM, first compound 3.16 µM
# [30] = second compound 3.16 µM, first compound 10 µM
# [31] = second compound 10 µM, first compound 0.0316 µM
# [32] = second compound 10 µM, first compound 0.1 µM
# [33] = second compound 10 µM, first compound 0.316 µM
# [34] = second compound 10 µM, first compound 1 µM
# [35] = second compound 10 µM, first compound 3.16 µM
# [36] = second compound 10 µM, first compound 10 µM
# 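Also: compound exposure lasted seven days before readout.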
# 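For viability, T/C in this document: 100% = DMSO vehicle control wells.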
smiles,measurement,setting,value
O=c1[nH]cc(F)c(=O)[nH]1 + CNC(=O)c1ccc(Nc2nc(OC3CCCC3)c3c(-c4ccc5nc(C)oc5c4)c[nH]c3n2)c(OC)c1,pIC50,second compound 0.0316 µM,< 5.00
same,pIC50,second compound 0.1 µM,5.27
same,pIC50,second compound 0.316 µM,> 7.50
same,pIC50,second compound 1 µM,> 7.50
same,pIC50,second compound 3.16 µM,> 7.50
same,pIC50,second compound 10 µM,> 7.50
same,"viability, T/C",[1],97.9%
same,"viability, T/C",[2],95.6%
same,"viability, T/C",[3],109%
same,"viability, T/C",[4],102%
same,"viability, T/C",[5],86.2%
same,"viability, T/C",[6],56.8%
same,"viability, T/C",[7],70.6%
same,"viability, T/C",[8],66.2%
same,"viability, T/C",[9],64.2%
same,"viability, T/C",[10],61.5%
same,"viability, T/C",[11],58.1%
same,"viability, T/C",[12],42.1%
same,"viability, T/C",[13],43.7%
same,"viability, T/C",[14],43.6%
same,"viability, T/C",[15],39.4%
same,"viability, T/C",[16],41%
same,"viability, T/C",[17],37.3%
same,"viability, T/C",[18],25.6%
same,"viability, T/C",[19],30.9%
same,"viability, T/C",[20],29.4%
same,"viability, T/C",[21],28.1%
same,"viability, T/C",[22],28.6%
same,"viability, T/C",[23],24.9%
same,"viability, T/C",[24],15%
same,"viability, T/C",[25],27.6%
same,"viability, T/C",[26],26.9%
same,"viability, T/C",[27],24.8%
same,"viability, T/C",[28],28.3%
same,"viability, T/C",[29],24.4%
same,"viability, T/C",[30],12.1%
same,"viability, T/C",[31],30.1%
same,"viability, T/C",[32],30.3%
same,"viability, T/C",[33],29.4%
same,"viability, T/C",[34],29.2%
same,"viability, T/C",[35],27.6%
same,"viability, T/C",[36],12%
C#Cc1c(F)ccc2cc(O)cc(-c3ncc4c(N5CC6CCC(C5)N6)nc(OCC56CCCN5CC(F)C6)nc4c3F)c12 (stereo unspecified) + CN1CCN(c2cc(C(=O)Nc3cc4cc(-c5cnn(C)c5)ccc4cn3)ccn2)CC1,pIC50,second compound 0.0316 µM,6.05
same,pIC50,second compound 0.1 µM,6.73
same,pIC50,second compound 0.316 µM,> 7.50
same,pIC50,second compound 1 µM,> 7.50
same,pIC50,second compound 3.16 µM,> 7.50
same,pIC50,second compound 10 µM,> 7.50
same,"viability, T/C",[1],110%
same,"viability, T/C",[2],88.2%
same,"viability, T/C",[3],76.2%
same,"viability, T/C",[4],44%
same,"viability, T/C",[5],29.4%
same,"viability, T/C",[6],15.2%
same,"viability, T/C",[7],73.7%
same,"viability, T/C",[8],75.3%
same,"viability, T/C",[9],29.7%
same,"viability, T/C",[10],22.9%
same,"viability, T/C",[11],16.3%
same,"viability, T/C",[12],9.03%
same,"viability, T/C",[13],16%
same,"viability, T/C",[14],11.7%
same,"viability, T/C",[15],6.4%
same,"viability, T/C",[16],4.52%
same,"viability, T/C",[17],4.02%
same,"viability, T/C",[18],2.36%
same,"viability, T/C",[19],0.29%
same,"viability, T/C",[20],0.77%
same,"viability, T/C",[21],0.35%
same,"viability, T/C",[22],0.39%
same,"viability, T/C",[23],0.43%
same,"viability, T/C",[24],0.19%
same,"viability, T/C",[25],1.1%
same,"viability, T/C",[26],0.65%
same,"viability, T/C",[27],0.64%
same,"viability, T/C",[28],1.1%
same,"viability, T/C",[29],1.04%
same,"viability, T/C",[30],0.26%
same,"viability, T/C",[31],0.72%
same,"viability, T/C",[32],0.54%
same,"viability, T/C",[33],0.53%
same,"viability, T/C",[34],0.64%
same,"viability, T/C",[35],1.33%
same,"viability, T/C",[36],0.27%
CCCS(=O)(=O)Nc1ccc(F)c(C(=O)c2c[nH]c3ncc(-c4ccc(Cl)cc4)cc23)c1F + CNC(=O)c1ccc(Nc2nc(OC3CCCC3)c3c(-c4ccc5nc(C)oc5c4)c[nH]c3n2)c(OC)c1,pIC50,second compound 0.0316 µM,< 5.00
same,pIC50,second compound 0.1 µM,5.16
same,pIC50,second compound 0.316 µM,5.44
same,pIC50,second compound 1 µM,> 7.50
same,pIC50,second compound 3.16 µM,> 7.50
same,pIC50,second compound 10 µM,> 7.50
same,"viability, T/C",[1],105%
same,"viability, T/C",[2],101%
same,"viability, T/C",[3],98.5%
same,"viability, T/C",[4],110%
same,"viability, T/C",[5],103%
same,"viability, T/C",[6],78.8%
same,"viability, T/C",[7],77%
same,"viability, T/C",[8],77.5%
same,"viability, T/C",[9],73.7%
same,"viability, T/C",[10],92.5%
same,"viability, T/C",[11],79.2%
same,"viability, T/C",[12],36.7%
same,"viability, T/C",[13],50.8%
same,"viability, T/C",[14],53%
same,"viability, T/C",[15],58.7%
same,"viability, T/C",[16],63.6%
same,"viability, T/C",[17],51.7%
same,"viability, T/C",[18],25.9%
same,"viability, T/C",[19],38.9%
same,"viability, T/C",[20],38.2%
same,"viability, T/C",[21],39.6%
same,"viability, T/C",[22],44.6%
same,"viability, T/C",[23],36.4%
same,"viability, T/C",[24],27.3%
same,"viability, T/C",[25],33.2%
same,"viability, T/C",[26],37.9%
same,"viability, T/C",[27],37.9%
same,"viability, T/C",[28],37.1%
same,"viability, T/C",[29],33.3%
same,"viability, T/C",[30],21.6%
same,"viability, T/C",[31],37.4%
same,"viability, T/C",[32],39.2%
same,"viability, T/C",[33],36.6%
same,"viability, T/C",[34],34.8%
same,"viability, T/C",[35],31.6%
same,"viability, T/C",[36],24.5%
